Measurements published in patent publication US20250163104A1, “MACROCYCLIC IMMUNOMODULATORS” (priority 2021, published 2025).
Where a SMILES comes first, the peptide text is derived from it. Bridges are numbered along the chain shown (N, C = ends). [ ]: non-standard residue; d: D form. The star is where a group is joined. ξ: configuration not given here. Phe(4-COOH) = N[C@@H](Cc1ccc(C(=O)O)cc1)C(=O)O; Tyr(3-Cl) = N[C@@H](Cc1ccc(O)c(Cl)c1)C(=O)O; Bip = N[C@@H](Cc1ccc(-c2ccccc2)cc1)C(=O)O; Phe(3-Me) = Cc1cccc(C[C@H](N)C(=O)O)c1; 2Nal = N[C@@H](Cc1ccc2ccccc2c1)C(=O)O; hArg = N=C(N)NCCCC[C@H](N)C(=O)O; ξW = NC(Cc1c[nH]c2ccccc12)C(=O)O; 4Pal = N[C@@H](Cc1ccncc1)C(=O)O; Cha = N[C@@H](CC1CCCCC1)C(=O)O; Cit = NC(=O)NCCC[C@H](N)C(=O)O; NMeN = CN[C@@H](CC(N)=O)C(=O)O; Carboxymethyl = O=C(O)C*; Nle = CCCC[C@H](N)C(=O)O; Orn = NCCC[C@H](N)C(=O)O; Dab = NCC[C@H](N)C(=O)O; Dap = NC[C@H](N)C(=O)O; Propargyl = C#CC*

The compounds below were run against T1, human PD-1 / PD-L1-Ig binding on Jurkat cell line over-expressing human PD-1 (Jurkat-PD-1) (Homo sapiens, UniProt Q15116) (assay: Jurkat-PD-1 Cell Binding High-Content Screening Assay (CBA)). Conditions: Jurkat-PD-1 cells, PE-labeled PD-L1-Ig 20 nM final; read-out: Jurkat HPD1_PDL1 IC50.
T1 construct: expressed in transfected cells; host or cells: Jurkat
T1 sequence (Q15116 25-288): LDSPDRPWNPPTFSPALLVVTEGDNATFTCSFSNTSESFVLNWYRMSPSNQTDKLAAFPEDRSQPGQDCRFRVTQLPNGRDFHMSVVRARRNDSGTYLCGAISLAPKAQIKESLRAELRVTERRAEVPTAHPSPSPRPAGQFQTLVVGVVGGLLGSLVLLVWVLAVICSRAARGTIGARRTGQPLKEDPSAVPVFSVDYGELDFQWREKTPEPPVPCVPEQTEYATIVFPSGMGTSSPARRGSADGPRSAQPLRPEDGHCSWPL
Type: cell-based
How it was run: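 Cell-bound PE-labeled PD-L1-Ig (20 nM final, 1 h) measured by high-content imaging after fixation and Hoechst 33342 counterstain. Compound was applied first for 2 h at 37° C. to Jurkat cells over-expressing human PD-1 in DMEM with 10% FCS.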

IC50 [µM]	SMILES
0.0174	CC(C)C[C@H]1NC(=O)[C@H](CN)NC(=O)[C@H](C(C)C)NC(=O)[C@H](Cc2ccc(-c3ccccc3)cc2)NC(=O)[C@H](C(C)C)NC(=O)[C@H](Cc2c[nH]c3ccccc23)NC(=O)[C@H](CC(=O)O)NC(=O)[C@H](Cc2ccncc2)NC(=O)[C@H](CN)NC(=O)CSC[C@@H](C(=O)NCC(N)=O)NC(=O)[C@H](CO)NC(=O)[C@H](C(C)C)NC(=O)[C@H](CC2CCCCC2)NC(=O)[C@H](CC(N)=O)NC1=O [Compound 1651] ({CH2CO}-[Dap][4Pal]DWV[Bip]V[Dap][dL]N[Cha]VSCG-NH2; thioether N-14)
0.543	CC(C)C[C@H]1NC(=O)[C@H](CCCN)NC(=O)[C@H](CCC(=O)O)NC(=O)[C@H](Cc2ccc(-c3ccccc3)cc2)NC(=O)[C@H](C(C)C)NC(=O)[C@H](Cc2ccc3ccccc3c2)NC(=O)[C@H](CC(=O)O)NC(=O)[C@H](Cc2ccc(OCC(=O)O)cc2)NC(=O)[C@H](CN)NC(=O)CSC[C@@H](C(=O)N[C@@H](C)C(N)=O)NC(=O)[C@H]([C@@H](C)O)NC(=O)[C@H](C(C)C)NC(=O)[C@H](CC2CCCCC2)NC(=O)[C@H](CCN)NC1=O [Compound 2142] ({CH2CO}-[Dap]Y(Carboxymethyl)D[2Nal]V[Bip]E[Orn][dL][Dab][Cha]VTCA-NH2; thioether N-14)
0.0148	CCC(C)[C@@H]1NC(=O)[C@H](Cc2ccc(-c3ccccc3)cc2)NC(=O)[C@H](C(C)C)NC(=O)[C@H](Cc2cccc(C)c2)NC(=O)[C@H](CC(=O)O)NC(=O)[C@H](Cc2ccc(C(=O)O)cc2)NC(=O)[C@H](Cc2ccncc2)NC(=O)CSC[C@@H](C(=O)N[C@@H](CCN)C(N)=O)NC(=O)[C@H]([C@@H](C)O)NC(=O)[C@H](C(C)C)NC(=O)[C@H](CC2CCCCC2)NC(=O)[C@H](CCN)NC(=O)[C@@H](CC(C)C)NC(=O)[C@H](CCCN)NC1=O (stereo partly drawn) [Compound 2301]
0.175	CC(C)C[C@H]1NC(=O)[C@H](CCCN)NC(=O)[C@H](CCCNC(N)=O)NC(=O)[C@H](Cc2ccc(-c3ccccc3)cc2)NC(=O)[C@H](C(C)C)NC(=O)[C@H](Cc2c[nH]c3ccccc23)NC(=O)[C@H](CC(=O)O)NC(=O)[C@H](Cc2ccc(OCC(=O)O)cc2)NC(=O)[C@H](Cc2ccc(OCC(=O)O)cc2)NC(=O)CSC[C@@H](C(=O)N[C@@H](C)C(N)=O)NC(=O)[C@H]([C@@H](C)O)NC(=O)[C@H](C(C)C)NC(=O)[C@H](Cc2ccc(O)cc2)NC(=O)[C@H](CCN)NC1=O [Compound 1685] ({CH2CO}-Y(Carboxymethyl)Y(Carboxymethyl)DWV[Bip][Cit][Orn][dL][Dab]YVTCA-NH2; thioether N-14)
0.0167	CC(C)C[C@@H]1NC(=O)[C@H](CCN)NC(=O)[C@@H](CC(C)C)NC(=O)[C@H](C)NC(=O)[C@H](C(C)C)NC(=O)[C@H](Cc2ccc(-c3ccccc3)cc2)NC(=O)[C@H](C(C)C)NC(=O)[C@H](Cc2c[nH]c3ccccc23)NC(=O)[C@H](CC(=O)O)NC(=O)[C@H](Cc2ccc(O)cc2)NC(=O)[C@H](CC(N)=O)NC(=O)CSC[C@@H](C(=O)N[C@@H](C)C(N)=O)NC(=O)[C@H]([C@@H](C)O)NC(=O)[C@H](C(C)C)NC1=O [Compound 1014] ({CH2CO}-NYDWV[Bip]VA[dL][Dab]LVTCA-NH2; thioether N-14)
0.0239	CC(C)C[C@H]1NC(=O)[C@H](CCCN)NC(=O)[C@H](C(C)C)NC(=O)[C@H](Cc2ccc(-c3ccccc3)cc2)NC(=O)[C@H](C(C)C)NC(=O)[C@H](Cc2c[nH]c3ccccc23)NC(=O)[C@H](CC(=O)O)NC(=O)[C@H](Cc2ccc(OCC(=O)O)cc2)NC(=O)[C@H](CCCCNC(=N)N)NC(=O)CSC[C@@H](C(=O)N(C)[C@@H](CC(N)=O)C(N)=O)NC(=O)[C@H](CO)NC(=O)[C@H](C(C)C)NC(=O)[C@H](CC2CCCCC2)NC(=O)[C@H](CCN)NC1=O [Compound 2567] ({CH2CO}-[hArg]Y(Carboxymethyl)DWV[Bip]V[Orn][dL][Dab][Cha]VSC[NMeN]-NH2; thioether N-14)
0.012	Cc1cccc(C[C@@H]2NC(=O)[C@H](CC(=O)O)NC(=O)[C@H](Cc3ccc(OCC(=O)O)cc3)NC(=O)[C@H](CN)NC(=O)CSC[C@@H](C(=O)N[C@@H](C)C(N)=O)NC(=O)[C@H]([C@@H](C)O)NC(=O)[C@H](C(C)C)NC(=O)[C@H](CC3CCCCC3)NC(=O)[C@H](CCN)NC(=O)[C@@H](CC(C)C)NC(=O)[C@H](CCCN)NC(=O)[C@H](CN)NC(=O)[C@H](Cc3ccc(-c4ccccc4)cc3)NC(=O)[C@H](C(C)C)NC2=O)c1 [Compound 1310] ({CH2CO}-[Dap]Y(Carboxymethyl)D[Phe(3-Me)]V[Bip][Dap][Orn][dL][Dab][Cha]VTCA-NH2; thioether N-14)
0.099	CC(C)C[C@@H]1NC(=O)[C@H](CCN)NC(=O)[C@@H](CC(C)C)NC(=O)[C@H](C(C)C)NC(=O)[C@H](C(C)C)NC(=O)[C@H](Cc2ccc(-c3ccccc3)cc2)NC(=O)[C@H](C(C)C)NC(=O)[C@H](Cc2c[nH]c3ccccc23)NC(=O)[C@H](CC(=O)O)NC(=O)[C@H](Cc2ccc(O)cc2)NC(=O)[C@H](CC(N)=O)NC(=O)CSC[C@@H](C(=O)N[C@@H](C)C(N)=O)NC(=O)[C@H]([C@@H](C)O)NC(=O)[C@H](C(C)C)NC1=O [Compound 1034] ({CH2CO}-NYDWV[Bip]VV[dL][Dab]LVTCA-NH2; thioether N-14)
0.015	CC(C)C[C@H]1NC(=O)[C@H](CCCN)NC(=O)[C@H](C(C)C)NC(=O)[C@H](Cc2ccc(-c3ccccc3)cc2)NC(=O)[C@H](C(C)C)NC(=O)[C@H](Cc2ccc(O)c(Cl)c2)NC(=O)[C@H](CC(=O)O)NC(=O)[C@H](Cc2ccc(OCC(=O)O)cc2)NC(=O)[C@H](CN)NC(=O)CSC[C@@H](C(=O)N[C@@H](CCN)C(N)=O)NC(=O)[C@H](CCCCN)NC(=O)[C@H](C(C)C)NC(=O)[C@H](CC2CCCCC2)NC(=O)[C@H](CCN)NC1=O [Compound 2035] ({CH2CO}-[Dap]Y(Carboxymethyl)D[Tyr(3-Cl)]V[Bip]V[Orn][dL][Dab][Cha]VKC[Dab]-NH2; thioether N-14)
0.0222	CC[C@H](C)[C@@H]1NC(=O)[C@H](Cc2ccc(-c3ccccc3)cc2)NC(=O)[C@H](CC(C)C)NC(=O)C(Cc2c[nH]c3ccccc23)NC(=O)[C@H](CC(=O)O)NC(=O)[C@H](Cc2ccc(O)cc2)NC(=O)[C@H](Cc2ccccc2)NC(=O)CSC[C@@H](C(=O)N[C@@H](C)C(N)=O)NC(=O)[C@H](CO)NC(=O)[C@H](C(C)C)NC(=O)[C@H](CC(C)C)NC(=O)[C@H](CC(N)=O)NC(=O)[C@@H](CC(C)C)NC(=O)[C@H](CN)NC1=O (stereo partly drawn) [Compound 1216] ({CH2CO}-FYD[ξW]L[Bip]I[Dap][dL]NLVSCA-NH2; thioether N-14)
0.0103	CCC(C)[C@@H]1NC(=O)[C@H](Cc2ccc(-c3ccccc3)cc2)NC(=O)[C@H](C(C)C)NC(=O)[C@H](Cc2cccc(C)c2C)NC(=O)[C@H](CC(=O)O)NC(=O)[C@H](Cc2ccc(OCC(=O)O)cc2)NC(=O)[C@H](CN)NC(=O)CSC[C@@H](C(=O)N[C@@H](C)C(N)=O)NC(=O)[C@H]([C@@H](C)O)NC(=O)[C@H](C(C)C)NC(=O)[C@H](CC2CCCCC2)NC(=O)[C@H](CCN)NC(=O)[C@@H](CC(C)C)NC(=O)[C@H](CCCN)NC1=O (stereo partly drawn) [Compound 2242]
0.014	CC(C)C[C@@H]1NC(=O)[C@H](CCN)NC(=O)[C@@H](CC(C)C)NC(=O)[C@H](CCCN)NC(=O)[C@H](C(C)C)NC(=O)[C@H](Cc2ccc(-c3ccccc3)cc2)NC(=O)[C@H](C(C)C)NC(=O)[C@H](Cc2c[nH]c3ccccc23)NC(=O)[C@H](CC(=O)O)NC(=O)[C@H](Cc2ccc(C(=O)O)cc2)NC(=O)[C@H](CN)NC(=O)CSC[C@@H](C(=O)N[C@@H](C)C(N)=O)NC(=O)[C@H]([C@@H](C)O)NC(=O)[C@H](C(C)C)NC1=O [Compound 1046] ({CH2CO}-[Dap][Phe(4-COOH)]DWV[Bip]V[Orn][dL][Dab]LVTCA-NH2; thioether N-14)
0.0168	CCCC[C@@H]1NC(=O)[C@H](CCN)NC(=O)[C@@H](CC(C)C)NC(=O)[C@H](CCCN)NC(=O)[C@H](C(C)C)NC(=O)[C@H](Cc2ccc(-c3ccccc3)cc2)NC(=O)[C@H](CC(C)C)NC(=O)[C@H](Cc2c[nH]c3ccccc23)NC(=O)[C@H](CC(=O)O)NC(=O)[C@H](Cc2ccc(OCC(=O)O)cc2)NC(=O)[C@H](Cc2ccc(OCC(=O)O)cc2)NC(=O)CSC[C@@H](C(=O)NCC(N)=O)NC(=O)[C@H](CO)NC(=O)[C@H](C(C)C)NC1=O [Compound 1409] ({CH2CO}-Y(Carboxymethyl)Y(Carboxymethyl)DWL[Bip]V[Orn][dL][Dab][Nle]VSCG-NH2; thioether N-14)
0.0033	C#CCOc1ccc(C[C@@H]2NC(=O)[C@H](Cc3cccc(C)c3)NC(=O)[C@H](CC(=O)O)NC(=O)[C@H](Cc3ccc(OCC(=O)O)cc3)NC(=O)[C@H](Cc3ccc(OCC(=O)O)cc3)NC(=O)CSC[C@@H](C(=O)N[C@@H](CCN)C(N)=O)NC(=O)[C@H](CCC(=O)O)NC(=O)[C@H](C(C)C)NC(=O)[C@H](CC3CCCCC3)NC(=O)[C@H](CCN)NC(=O)[C@@H](CC(C)C)NC(=O)[C@H](CCCN)NC(=O)[C@H](Cc3ccc(OCC(=O)O)cc3)NC(=O)[C@H](Cc3ccc(-c4ccccc4)cc3)NC2=O)cc1 [Compound 1834] ({CH2CO}-Y(Carboxymethyl)Y(Carboxymethyl)D[Phe(3-Me)]Y(Propargyl)[Bip]Y(Carboxymethyl)[Orn][dL][Dab][Cha]VEC[Dab]-NH2; thioether N-14)
0.0111	CC(C)C[C@H]1NC(=O)[C@H](CCCN)NC(=O)[C@H](CCC(=O)O)NC(=O)[C@H](Cc2ccc(-c3ccccc3)cc2)NC(=O)[C@H](C(C)C)NC(=O)[C@H](Cc2ccc(Cl)c(Cl)c2)NC(=O)[C@H](CC(=O)O)NC(=O)[C@H](Cc2ccc(OCC(=O)O)cc2)NC(=O)[C@H](CN)NC(=O)CSC[C@@H](C(=O)N[C@@H](C)C(N)=O)NC(=O)[C@H]([C@@H](C)O)NC(=O)[C@H](C(C)C)NC(=O)[C@H](CC2CCCCC2)NC(=O)[C@H](CCN)NC1=O [Compound 2152]
